Laboratory results published in article PMC2438350, “Comparison of four different colorimetric and fluorometric cytotoxicity assays in a zebrafish liver cell line” (BMC Pharmacology, 2008).

Legend:
Assay type in all cases: cell-based, zebrafish (Danio rerio)
ZFL cells [1] = test: CFDA-AM assay, cytotoxicity; conditions: for EC10 (10% loss of cell viability): 24 h exposure, mean ± SD of three experiments; for EC50: read-out: EC50 (50% loss of cell viability), 24 h exposure, mean ± SD of three experiments
Experimental: (§1) Each compound was dissolved in dimethyl sulfoxide (DMSO) and diluted in a way that all stock solutions were 200 times concentrated compared to the final test concentrations. Concentration ranges were 30 pM-1.97 μM for BaP, 5 nM-5 μM for Flus, 5 nM-11 μM for Tam, and 0.2–43 μM for 4-OHT, which is in the range of in vivo studies with waterborne exposure of zebrafish for BaP, Tam, and 4-OHT [20-22, 29]. For Flusilazole, no studies on fish are available.
(§2) For finding the optimal biological test conditions, in the beginning different cell densities were applied using two-fold dilution series in the range of 780–100,000 cells/well and cell viability tests were performed after 24 h. […] Thus, cells were plated in 96 well flat-bottom plates at an initial cell density of 25,000 cells/well in 200 μL of medium and allowed to settle for 24 h. In parallel, wells containing only medium without cells were prepared and used later on for background correction. After the pre-incubation period, for each test compound and each concentration, 1 μL of the DMSO stock solutions was added so that the final DMSO content was 0.5%. All tests were performed at least three times and each time in triplicate.
(§3) The fluorogenic indicator dyes alamarBlue® (AB) (BioSource, Invitrogen) and CFDA-AM (5-carboxyfluorescein diacetate acetoxymethyl ester; Molecular Probes, Invitrogen) were used in combination on a third set of cells, since it was shown before that their fluorescent products can be detected at different non-interfering wavelengths. AB was obtained as ready-to-use stock solution, which had to be diluted 200 times to obtain the working solution. CFDA-AM powder was dissolved in DMSO to a stock solution of 4 mM, which was diluted 1000 times to reach the 4 μM working solution. […] For this purpose, cells were exposed to the dyes dissolved in culture medium without FBS or in Earle's-G medium. […] The AB/CFDA-AM assay was then performed according to [10]. In brief, after 24 h of incubation with the test compounds, the medium was aspirated off completely and 100 μL/well of the alamarBlue/CFDA-AM working solution were added. After 30 min of incubation, fluorescence was measured at 530 nm excitation/590 nm emission for AB and 485 nm/535 nm for CFDA-AM, respectively, using a fluorescence plate reader (Infinite 200, Tecan). For data evaluation, average values of triplicates were calculated after background correction and all average values for the treatments referred to the DMSO control, in order to express data as "% cytotoxicity".
(§4) For each single assay, data were evaluated separately for three independent experiments. Dose-response curves were fitted using a nonlinear-regression sigmoidal dose-response curve model provided in the GraphPad Prism software (GraphPad software, Inc., San Diego, USA). EC10 and EC50 values were derived from these fitted curves for the single experiments. Final EC-values (Table 1) were calculated as average of three independent experiments with the standard deviation of the mean indicating the variation. Data from the different assays were statistically compared using One way ANOVA analysis with Tukey's test as post-ANOVA analysis (p < 0.05).

ZFL cells [2] = test: MTT assay, cytotoxicity; conditions: for EC10 (10% loss of cell viability): 24 h exposure, mean ± SD of three experiments; for EC50: read-out: EC50 (50% loss of cell viability), 24 h exposure, mean ± SD of three experiments
Experimental: as §1, §2
The MTT assay was performed using the cell proliferation kit I MTT (Roche) according to the manufacturer's protocol. In brief, after 24 h of incubation with the test compounds, 100 μL of medium were removed from each well. Then, 10 μL of the MTT solution were added and plates incubated for 4 h at 28°C. Since the manufacturer recommends incubation at 37°C and ZFL cells have to be incubated at 28°C, we tested different incubation times with MTT (2, 4, and 6 h) to establish optimized conditions. […] After the incubation with MTT, the solubilization solution was added and plates incubated over night. The next day, absorption of the produced formazan was measured at 570 nm with 680 nm as reference wavelength using a microplate reader (Infinite 200, Tecan). For data evaluation, background and reference wavelength corrected absorption values were averaged for the triplicates and expressed as "% cytotoxicity" referring to the untreated control containing only the solvent DMSO.
as §4

ZFL cells [3] = test: LDH assay (released lactate dehydrogenase activity), cytotoxicity; conditions: for EC10 (10% loss of cell viability): 24 h exposure, 1% FBS, mean ± SD of three experiments; for EC50: read-out: EC50 (50% loss of cell viability), 24 h exposure, 1% FBS, mean ± SD of three experiments
Experimental: as §1, §2
A second set of cells was exposed to the test compounds for the LDH assay, which was performed using the Cytotoxicity Detection Kit LDH (Roche). For this assay, a positive control, leading to 100% cytotoxicity by lysing the cells completely, was included in the assay. The positive control was 2% Triton X-100 solution in the assay medium, as proposed by the manufacturer. After pre-incubation of the cells, before addition of the test compounds, the growth medium was exchanged from medium containing 5% FBS to medium containing only 1% FBS. Then, test compounds in DMSO were dosed and plates incubated as for the other assays for 24 h. For testing the released LDH activity, 100 μL of culture medium were transferred to a new 96 well plate. 100 μL of the reaction solution from the kit, containing the detection dye and the catalyst were then added and absorption was measured after 30 min at 490 nm with 655 nm as reference wavelength in an ELISA reader (Model 680, Biorad). As for the other assays, background values from wells without cells were subtracted and average values for the triplicates calculated. Cytotoxicity was then calculated according to the following equation: Cytotoxicity (%) = (experimental value - DMSO control)/(positive control - DMSO control) × 100.
as §4

ZFL cells [4] = test: alamarBlue (AB) assay, cytotoxicity; conditions: for EC10 (10% loss of cell viability): 24 h exposure, mean ± SD of three experiments; for EC50: read-out: EC50 (50% loss of cell viability), 24 h exposure, mean ± SD of three experiments
Experimental: as §1, §2, §3, §4

Row | SMILES | EC10 (10% loss of cell viability) (ZFL cells [1]) | EC50 (ZFL cells [1]) | EC10 (10% loss of cell viability) (ZFL cells [2]) | EC50 (ZFL cells [2]) | EC10 (10% loss of cell viability) (ZFL cells [3]) | EC50 (ZFL cells [3]) | EC10 (10% loss of cell viability) (ZFL cells [4]) | EC50 (ZFL cells [4]) | EC50 (ZFL cells [1]; Danio rerio) | EC50 (ZFL cells [2]; Danio rerio) | EC50 (ZFL cells [3]; Danio rerio) | EC50 (ZFL cells [4]; Danio rerio)
1 | CC/C(=C(\c1ccc(O)cc1)c1ccc(OCCN(C)C)cc1)c1ccccc1.Cl [4-OH-Tamoxifen, trans-4-Hydroxy-Tamoxifen] | 1080 ± 620 nM | 1730 ± 670 nM | 1490 ± 820 nM | 1780 ± 400 nM | 730 ± 550 nM | 1620 ± 10 nM | 790 ± 400 nM | 1170 ± 240 nM | – | – | – | –
2 | C[Si](Cn1cncn1)(c1ccc(F)cc1)c1ccc(F)cc1 [Flusilazole] | 6490 ± 1080 nM | – | 11290 ± 5880 nM | – | 2280 ± 3120 nM | – | 16130 ± 11440 nM | – | 16700 ± 4760 nM | 18400 ± 14100 nM | 17400 ± 14500 nM | 26400 ± 7300 nM
3 | CC/C(=C(\c1ccccc1)c1ccc(OCCN(C)C)cc1)c1ccccc1 [Tamoxifen] | 2520 ± 2140 nM | – | 1390 ± 770 nM | – | 610 ± 670 nM | – | 1370 ± 330 nM | – | – | – | – | –
